Read-outs that look alike come from different tables or passages of the source.
Experiments:
[1] = system: sorbitol accumulation in the lens and the sciatic nerve; experiment: Reduction or inhibition of sorbitol accumulation in the lens and the sciatic nerve of streptozotocin-induced diabetic rats; assay type: in vivo, rat; conditions: for Inhibition of sorbitol accumulation: vs no compound; for higher activities such as the inhibition of sorbitol accumulation, predominant diastereomer compared with the other isomer: predominant vs minor diastereomer; for superior effect on the inhibition of sorbitol accumulation in comparison with the control compound: vs control compound, Table 1
Experimental: The compounds listed in Tables 1 and 2 were tested for the ability to reduce or inhibit the accumulation of sorbitol in the lens and the sciatic nerve of streptozotocin-induced diabetic rats by the method of M. J. Peterson et al., [Metabolism, Vol. 28, No. 4, Supply. 1 (April), 456-461 (1979)]. […] In this experiment, the amount of sorbitol accumulation in the lens and the sciatic nerve of the rat was measured 28 hours after induction of diabetes.
The compounds listed in Tables 1 and 2 were orally administered at, the dose levels indicated in the Tables, 4, 8 and 25 hours after the administration of the streptozotocin.

aldose reductase = target: T1, aldose reductase (Bos taurus, UniProt P16116); experiment: Inhibition effect on aldose reductase; assay type: biochemical; conditions: for activity of the d-type relative to the dl-type product: aldose reductase
T1 construct: Aldose reductase was prepared by the method of Hayman et al; from tissue
Experimental: Aldose reductase was prepared by the method of Hayman et al. [S. Hayman and K.K. Kinoshita; Journal of Biological Chemistry, Vol. 240, p.

[2] = system: galactitol accumulation in the lens and the sciatic nerve; experiment: Inhibition of galactitol accumulation in the lens and the sciatic nerve of galactosemic rats; assay type: in vivo, male Sprague-Dawley rats; conditions: 16th day
Experimental: (§1) On the 16th day of the study (24 hours after the final administration) lenticular opacities were observed, and then the lens and the sciatic nerve were enucleated to determine the content of carbohydrates.

[3] = system: cataract formation in galactosemic rats; experiment: Effect on cataract formation in galactosemic rats (visual observation of lenticular opacities); assay type: in vivo, male Sprague-Dawley rats; conditions: for lenticular opacities, number with grade ++ / lenticular opacities, number with grade +++: 1 mg/kg oral once a day; for lenticular opacities, number with grade ++ / lenticular opacities, number with grade +++ / lenticular opacities, number with grade + / lenticular opacities, number with grade - (no opacity): 16th day, total 6
Experimental: as §1
The abscissa in FIG. 1 indicates the number of days from the beginning of feeding of a 30% galactose diet, and the ordinate indicates the percentages of appearance of the cataract.
In Table 3, a symbol - represents the case of no opacity and +, ++, +++ show the grade of the opacity, respectively.

[4] = lens, 10 mg/kg oral, 4, 8 and 25 h after streptozotocin
[5] = sciatic nerve, 10 mg/kg oral, 4, 8 and 25 h after streptozotocin
[6] = similar manner as in Experiment 3, d-type vs dl-type product, read-out: ID50, inhibition effect on the Aldose reductase
[7] = lens, 0.2 mg/kg oral, 4, 8 and 25 h after streptozotocin
[8] = lens, 1 mg/kg oral, 4, 8 and 25 h after streptozotocin
[9] = lens, 5 mg/kg oral, 4, 8 and 25 h after streptozotocin
[10] = sciatic nerve, 0.2 mg/kg oral, 4, 8 and 25 h after streptozotocin
[11] = sciatic nerve, 1 mg/kg oral, 4, 8 and 25 h after streptozotocin
[12] = sciatic nerve, 5 mg/kg oral, 4, 8 and 25 h after streptozotocin
[13] = Table 5, read-out: ID50 (concentration of 50% inhibition on aldose reductase)

In the case of `CC1(C)CC2(NC(=O)NC2=O)c2cc(Cl)cc(Cl)c2O1` (stereo not shown) [6,8-Dichloro-2,2-dimethyl-spiro-[chroman-4,4'-imidazolidine]-2',5'-dione], the “Inhibition of sorbitol accumulation” value [1, 4] is reported as 87% and the “Inhibition of sorbitol accumulation” value [1, 5] is reported as 55%.

`CC1(C)CC2(NC(=O)NC2=O)c2cc(Br)ccc2O1` (stereo not shown) [6-Bromo-2,2-dimethyl-spiro-[chroman-4,4'-imidazolidine]-2',5'-dione] was tested, and the “Inhibition of sorbitol accumulation” value [1, 4] was 88% and the “Inhibition of sorbitol accumulation” value [1, 5] was 100%.

For `CC1CC2(NC(=O)NC2=O)c2cc(F)ccc2O1` (stereo not drawn) [d-6-fluoro-2-methyl-spiro-[chromane-4,4'-imidazolidine]-2',5'-dione], the “activity of the d-type relative to the dl-type product” value (aldose reductase; d-type vs dl-type product) was “about twice” and the IC50 (aldose reductase; [6]) was 93 nM.

In the case of `O=C1NC(=O)C2(CCOc3ccc(F)cc32)N1` (stereo not shown) [6-fluoro-spiro-[chroman-4,4'-imidazolidine]-2',5'-dione, reference compound], the “Inhibition of sorbitol accumulation” value [1, 7] is reported as -29%, the “Inhibition of sorbitol accumulation” value [1, 8] is reported as 41% and the “Inhibition of sorbitol accumulation” value [1, 9] is reported as 62%. For the same compound, the “Inhibition of sorbitol accumulation” value [1, 4] was 77%, the “Inhibition of sorbitol accumulation” value [1, 10] was 26% and the “Inhibition of sorbitol accumulation” value [1, 11] was 15%. The “Inhibition of sorbitol accumulation” value [1, 12] was 67%, the “Inhibition of sorbitol accumulation” value [1, 5] was 88% and the “Inhibition of galactitol accumulation” value ([2]; lens, 1 mg/kg oral once a day) was -11%. For the same compound, the “Inhibition of galactitol accumulation” value ([2]; lens, 5 mg/kg oral once a day) was 5%, the “Inhibition of galactitol accumulation” value ([2]; lens, 25 mg/kg oral once a day) was 22% and the “Inhibition of galactitol accumulation” value ([2]; sciatic nerve, 1 mg/kg oral once a day) was 1%. The “Inhibition of galactitol accumulation” value ([2]; sciatic nerve, 5 mg/kg oral once a day) was -12%, the “Inhibition of galactitol accumulation” value ([2]; sciatic nerve, 25 mg/kg oral once a day) was 17% and the “Inhibition on aldose reductase” value (aldose reductase; 3 × 10^-6 (M)) was 78%. For the same compound, the “Inhibition on aldose reductase” value (aldose reductase; 3 × 10^-7 (M)) was 17%, the “Inhibition on aldose reductase” value (aldose reductase; 10^-6 (M)) was 53% and the “Inhibition on aldose reductase” value (aldose reductase; 10^-7 (M)) was 2%. The “lenticular opacities on the 16th day (in words)” value ([3]; 25 mg/kg oral once a day) was “lenticular opacities were not observed”, the “lenticular opacities, number with grade ++” value ([3]; left) was 3 and the “lenticular opacities, number with grade +++” value ([3]; left) was 3. For the same compound, the “lenticular opacities, number with grade +” value ([3]; left, 5 mg/kg oral once a day) was 4, the “lenticular opacities, number with grade - (no opacity)” value (“lenticular opacities … (no opacity)” below) ([3]; left, 5 mg/kg oral once a day) was 2 and the “lenticular opacities … (no opacity)” value ([3]; left, 25 mg/kg oral once a day) was 6. The “lenticular opacities, number with grade ++” value ([3]; right) was 2, the “lenticular opacities, number with grade +++” value ([3]; right) was 4 and the “lenticular opacities, number with grade +” value ([3]; right, 5 mg/kg oral once a day) was 4. The “lenticular opacities … (no opacity)” value ([3]; right, 5 mg/kg oral once a day) was 2 and the “lenticular opacities … (no opacity)” value ([3]; right, 25 mg/kg oral once a day) was 6.

With `CC1CC2(NC(=O)NC2=O)c2cc(F)ccc2O1` (stereo not shown) [6-Fluoro-2-methyl-spiro-[chroman-4,4'-imidazolidine]-2',5'-dione] the “Inhibition of sorbitol accumulation” value [1, 7] was 43%, the “Inhibition of sorbitol accumulation” value [1, 8] was 80% and the “Inhibition of sorbitol accumulation” value [1, 9] was 93%. The “Inhibition of sorbitol accumulation” value [1, 4] was 96%, the “higher activities such as the inhibition of sorbitol accumulation, predominant diastereomer compared with the other isomer” value [1] was 3-5 times and the “Inhibition of sorbitol accumulation” value [1, 10] was 39%. For the same compound, the “Inhibition of sorbitol accumulation” value [1, 11] was 100%, the “Inhibition of sorbitol accumulation” value [1, 12] was 100% and the “Inhibition of sorbitol accumulation” value [1, 5] was 100%. The “superior effect on the inhibition of sorbitol accumulation in comparison with the control compound” value [1] was 2-10 times, the “Inhibition on aldose reductase” value (aldose reductase; 3 × 10^-6 (M)) was 91% and the “Inhibition on aldose reductase” value (aldose reductase; 3 × 10^-7 (M)) was 31%. The “Inhibition on aldose reductase” value (aldose reductase; 10^-6 (M)) was 77%, the “Inhibition on aldose reductase” value (aldose reductase; 10^-7 (M)) was 7% and the IC50 (aldose reductase; [13]) was 500 nM. For the same compound, the IC50 (aldose reductase; [6]) was 180 nM.

For `CC1CC2(NC(=O)NC2=O)c2cc(Cl)ccc2O1` (stereo not shown) [6-Chloro-2-methyl-spiro-[chroman-4,4'-imidazolidine]-2',5'-dione], the “Inhibition of sorbitol accumulation” value [1, 4] was 97%, the “higher activities such as the inhibition of sorbitol accumulation, predominant diastereomer compared with the other isomer” value [1] was 3-5 times and the “Inhibition of sorbitol accumulation” value [1, 5] was 82%. The “superior effect on the inhibition of sorbitol accumulation in comparison with the control compound” value [1] was 2-10 times, the “Inhibition on aldose reductase” value (aldose reductase; 3 × 10^-6 (M)) was 92% and the “Inhibition on aldose reductase” value (aldose reductase; 3 × 10^-7 (M)) was 31%. For the same compound, the “Inhibition on aldose reductase” value (aldose reductase; 10^-6 (M)) was 84%, the “Inhibition on aldose reductase” value (aldose reductase; 10^-7 (M)) was 0% and the IC50 (aldose reductase; [13]) was 400 nM. It also gave an IC50 (aldose reductase; [6]) of 77 nM.

`CC1CC2(NC(=O)NC2=O)c2cc(Cl)c(Cl)cc2O1` (stereo not shown) [6,7-Dichloro-2-methyl-spiro-[chroman-4,4'-imidazolidine]-2',5'-dione] was tested, and the “Inhibition of sorbitol accumulation” value [1, 9] was 88%.

`CC1(C)CC2(NC(=O)NC2=O)c2cc(F)ccc2O1` (stereo not shown) [6-Fluoro-2,2-dimethyl-spiro-[chroman-4,4'-imidazolidine]-2',5'-dione] was tested, and the “Inhibition of sorbitol accumulation” value [1, 7] was 35%, the “Inhibition of sorbitol accumulation” value [1, 8] was 58% and the “Inhibition of sorbitol accumulation” value [1, 9] was 72%. For the same compound, the “Inhibition of sorbitol accumulation” value [1, 4] was 81%, the “Inhibition of sorbitol accumulation” value [1, 10] was 22% and the “Inhibition of sorbitol accumulation” value [1, 11] was 33%. The “Inhibition of sorbitol accumulation” value [1, 12] was 81%, the “Inhibition of sorbitol accumulation” value [1, 5] was 93% and the “Inhibition on aldose reductase” value (aldose reductase; 3 × 10^-6 (M)) was 70%. The “Inhibition on aldose reductase” value (aldose reductase; 3 × 10^-7 (M)) was 12%, the “Inhibition on aldose reductase” value (aldose reductase; 10^-6 (M)) was 40% and the “Inhibition on aldose reductase” value (aldose reductase; 10^-7 (M)) was 0%. The IC50 (aldose reductase; [13]) was 2000 nM.

In the case of `CC1CC2(NC(=O)NC2=O)c2ccc(Cl)cc2O1` (stereo not shown) [7-Chloro-2-methyl-spiro-[chroman-4,4'-imidazolidine]-2',5'-dione], the “Inhibition of sorbitol accumulation” value [1, 9] is reported as 83%.

For `CC1CC2(NC(=O)NC2=O)c2cc(Cl)ccc2O1` (stereo not drawn) [d-6-chloro-2-methyl-spiro-[chromane-4,4'-imidazolidine]-2',5'-dione], the “activity of the d-type relative to the dl-type product” value (aldose reductase; d-type vs dl-type product) was “about twice” and the IC50 (aldose reductase; [6]) was 43 nM.

With `CC1Oc2ccc(Cl)cc2C12NC(=O)NC2=O` (stereo not shown) [5-Chloro-2-methyl-spiro-[benzofuran-3,4'-imidazolidine]-2',5'-dione] the “Inhibition of sorbitol accumulation” value [1, 4] was 95% and the “Inhibition of sorbitol accumulation” value [1, 5] was 45%.

For `CC1CC2(NC(=O)NC2=O)c2ccccc2O1` (stereo not shown) [2-Methyl-spiro-[chroman-4,4'-imidazolidine]-2',5'-dione], the “Inhibition of sorbitol accumulation” value [1, 9] was 54% and the “Inhibition of sorbitol accumulation” value [1, 12] was 77%.
